The values below come from patent US20230043863A1, “HETEROAROMATIC DERIVATIVES FOR USE AS REGULATOR, PREPARATION METHOD THEREFOR AND USE THEREOF” (JIANGSU HANSOH PHARMACEUTICAL GROUP CO., LTD., priority 2018, published 2023).

pIC50: −log10 of the molar value. Where two headings read alike, the source gives them in different places.

One series addresses JAK1 (Homo sapiens, UniProt P23458). In words: JAK kinase activity inhibition, TR-FRET (JAK1). It counts as biochemical. Particulars: TR-FRET kinase assay. An outline of the steps: (§1)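 TR-FRET read (≈620 and 665 nm) after EDTA quench and 1-24 h antibody detection at RT. Kinase 0.1-20 nM, peptide substrate + ATP, 0.5-5 h RT reaction in HEPES 50-250 mM, MgCl2 5-20 mM. IC50 from 4-parameter fit vs DMSO and no-kinase controls.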
For orientation: Time-resolved FRET reads energy transfer from a long-lived donor to a nearby acceptor.

Another series deals with JAK2 (Homo sapiens, UniProt O60674). Kind of series: JAK kinase activity inhibition, TR-FRET (JAK2). The conditions noted are these: TR-FRET kinase assay. The series is classed as biochemical. An outline of the steps: as §1
A further series addresses TYK2 (Homo sapiens, UniProt P29597). Kind of series: JAK kinase activity inhibition, TR-FRET (TYK2). It counts as biochemical. Particulars: TR-FRET kinase assay. Put shortly: as §1
The nature of series [1]: Balb/C mouse pharmacokinetics (plasma, colon, ileum). The conditions noted are these: male, po, Balb/C mice, p.o. 5 mg/kg; for Cmax: read-out: Blood concentration Cmax; for AUC(0-t): read-out: Curve area AUC0-t; for MRT: read-out: Mean detention time MRT; for Tmax: read-out: Time to peak tmax; for AUC(0-inf): read-out: Curve area AUC0-∞; for half-life: read-out: Half life period t1/2 (converted). The series is classed as in vivo. Put shortly: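 Male Balb/C mice (12 per group), fasted overnight, given 5 mg/kg p.o.; plasma, ileum and colon sampled at 0–7 h. Drug levels by LC/MS/MS, […]; parameters include colon/ileum and colon/plasma concentration ratios.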

Chain of JAK1 (P23458 whole entry): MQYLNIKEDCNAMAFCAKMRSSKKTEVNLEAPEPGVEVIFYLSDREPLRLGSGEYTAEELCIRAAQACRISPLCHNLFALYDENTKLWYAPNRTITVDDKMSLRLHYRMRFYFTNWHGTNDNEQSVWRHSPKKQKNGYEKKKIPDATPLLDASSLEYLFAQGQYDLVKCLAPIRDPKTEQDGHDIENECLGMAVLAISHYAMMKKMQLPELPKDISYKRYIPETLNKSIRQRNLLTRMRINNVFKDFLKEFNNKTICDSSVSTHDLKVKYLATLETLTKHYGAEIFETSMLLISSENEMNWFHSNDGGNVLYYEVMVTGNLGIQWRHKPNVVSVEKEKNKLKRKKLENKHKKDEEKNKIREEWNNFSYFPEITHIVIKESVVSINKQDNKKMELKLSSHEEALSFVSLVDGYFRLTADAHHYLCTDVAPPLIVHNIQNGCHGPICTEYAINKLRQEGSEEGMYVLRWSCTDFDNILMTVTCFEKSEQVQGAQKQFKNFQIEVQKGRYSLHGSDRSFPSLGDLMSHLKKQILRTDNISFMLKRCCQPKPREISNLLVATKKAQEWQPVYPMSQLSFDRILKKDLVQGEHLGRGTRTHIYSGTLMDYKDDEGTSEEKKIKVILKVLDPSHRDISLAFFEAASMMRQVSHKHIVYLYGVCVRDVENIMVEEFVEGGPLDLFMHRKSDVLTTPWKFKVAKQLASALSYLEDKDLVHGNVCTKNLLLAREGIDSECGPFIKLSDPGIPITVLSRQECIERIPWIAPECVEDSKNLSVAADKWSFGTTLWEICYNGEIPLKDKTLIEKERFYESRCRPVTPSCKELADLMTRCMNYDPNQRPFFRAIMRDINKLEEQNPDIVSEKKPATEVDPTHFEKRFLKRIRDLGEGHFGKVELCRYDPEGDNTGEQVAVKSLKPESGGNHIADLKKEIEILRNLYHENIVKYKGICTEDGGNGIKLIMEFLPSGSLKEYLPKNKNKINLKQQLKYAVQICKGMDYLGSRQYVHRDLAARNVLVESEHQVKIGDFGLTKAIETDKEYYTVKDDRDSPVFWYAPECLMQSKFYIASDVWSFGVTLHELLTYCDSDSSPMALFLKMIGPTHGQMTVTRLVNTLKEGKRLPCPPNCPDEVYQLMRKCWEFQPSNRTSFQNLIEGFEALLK
Chain of TYK2 (P29597 whole entry): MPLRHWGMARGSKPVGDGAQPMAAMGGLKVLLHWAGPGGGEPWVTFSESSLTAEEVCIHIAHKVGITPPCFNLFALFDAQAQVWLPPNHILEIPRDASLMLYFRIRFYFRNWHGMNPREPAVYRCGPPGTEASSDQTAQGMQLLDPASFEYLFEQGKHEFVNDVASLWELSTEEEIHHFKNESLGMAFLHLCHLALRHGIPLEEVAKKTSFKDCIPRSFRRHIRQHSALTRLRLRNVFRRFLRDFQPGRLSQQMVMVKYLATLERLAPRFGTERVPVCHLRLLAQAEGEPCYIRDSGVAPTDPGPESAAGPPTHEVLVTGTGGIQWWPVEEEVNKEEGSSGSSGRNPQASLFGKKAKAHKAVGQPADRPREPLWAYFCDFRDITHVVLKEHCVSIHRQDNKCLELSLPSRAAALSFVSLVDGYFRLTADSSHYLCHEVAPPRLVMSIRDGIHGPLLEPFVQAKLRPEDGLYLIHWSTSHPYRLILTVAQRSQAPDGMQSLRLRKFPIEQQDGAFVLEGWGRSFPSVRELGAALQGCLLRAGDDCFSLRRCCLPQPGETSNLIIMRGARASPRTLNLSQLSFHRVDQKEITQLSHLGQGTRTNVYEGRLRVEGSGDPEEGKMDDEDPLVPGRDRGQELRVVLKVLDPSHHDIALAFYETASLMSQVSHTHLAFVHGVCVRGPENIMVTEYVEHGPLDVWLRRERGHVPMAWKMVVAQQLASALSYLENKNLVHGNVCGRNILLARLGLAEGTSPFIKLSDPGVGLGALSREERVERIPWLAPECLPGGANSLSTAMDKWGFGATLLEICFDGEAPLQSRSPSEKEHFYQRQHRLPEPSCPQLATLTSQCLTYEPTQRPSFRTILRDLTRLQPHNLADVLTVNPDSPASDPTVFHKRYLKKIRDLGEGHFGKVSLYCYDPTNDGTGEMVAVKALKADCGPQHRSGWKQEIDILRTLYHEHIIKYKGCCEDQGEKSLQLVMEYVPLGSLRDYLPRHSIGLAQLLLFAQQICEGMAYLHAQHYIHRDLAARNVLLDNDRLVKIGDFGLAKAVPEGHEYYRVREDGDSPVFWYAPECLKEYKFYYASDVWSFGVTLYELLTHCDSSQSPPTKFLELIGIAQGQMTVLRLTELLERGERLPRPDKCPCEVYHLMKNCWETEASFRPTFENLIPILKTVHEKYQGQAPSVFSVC
Chain of JAK2 (O60674 whole entry): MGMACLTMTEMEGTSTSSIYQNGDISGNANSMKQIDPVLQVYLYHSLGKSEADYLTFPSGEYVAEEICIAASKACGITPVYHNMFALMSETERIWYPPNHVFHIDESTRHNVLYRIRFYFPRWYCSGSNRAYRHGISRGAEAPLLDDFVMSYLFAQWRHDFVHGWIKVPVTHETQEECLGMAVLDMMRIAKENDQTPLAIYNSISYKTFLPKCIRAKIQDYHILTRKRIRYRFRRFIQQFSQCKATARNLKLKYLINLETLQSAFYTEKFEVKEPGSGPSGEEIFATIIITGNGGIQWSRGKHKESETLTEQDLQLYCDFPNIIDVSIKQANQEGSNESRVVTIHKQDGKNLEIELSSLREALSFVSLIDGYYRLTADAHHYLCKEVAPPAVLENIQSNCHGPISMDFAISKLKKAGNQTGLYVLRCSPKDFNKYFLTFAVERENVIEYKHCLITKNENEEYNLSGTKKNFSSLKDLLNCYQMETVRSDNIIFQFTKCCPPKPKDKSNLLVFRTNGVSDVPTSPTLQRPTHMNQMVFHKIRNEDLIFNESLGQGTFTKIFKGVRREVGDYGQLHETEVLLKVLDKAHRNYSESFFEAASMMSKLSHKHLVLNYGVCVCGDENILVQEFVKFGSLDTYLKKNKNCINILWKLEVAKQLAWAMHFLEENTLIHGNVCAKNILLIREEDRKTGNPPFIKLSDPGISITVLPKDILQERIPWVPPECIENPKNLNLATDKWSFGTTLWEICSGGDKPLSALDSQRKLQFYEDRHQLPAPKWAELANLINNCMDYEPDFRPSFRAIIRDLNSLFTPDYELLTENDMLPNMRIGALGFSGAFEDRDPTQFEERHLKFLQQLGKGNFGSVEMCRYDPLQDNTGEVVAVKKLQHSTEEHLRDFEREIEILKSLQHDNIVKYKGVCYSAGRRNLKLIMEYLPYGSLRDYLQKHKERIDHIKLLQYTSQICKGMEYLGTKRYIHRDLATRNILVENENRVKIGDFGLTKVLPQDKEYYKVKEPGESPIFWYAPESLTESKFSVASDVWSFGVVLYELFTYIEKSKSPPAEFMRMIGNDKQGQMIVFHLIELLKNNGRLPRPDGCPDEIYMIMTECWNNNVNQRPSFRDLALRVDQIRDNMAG

For the compound `Cc1cc(Nc2nc(N[C@@H]3C[C@H]4CC[C@@H](C3)N4S(=O)(=O)N3CC(C#N)C3)nc3sccc23)n[nH]1` [Embodiment 237, 1-(((3-exo)-3-((4-((5-methyl-1H-pyrazol-3-yl)amino)thieno[2,3-d]pyrimidin-2-yl)amino)-8-azabicyclo[3.2.1]oct-8-yl)sulfonyl)azetindin-3-formonitrile], the pIC50 (as a rule, the IC50 on a negative log10 scale, so that one unit is a factor of ten) on JAK1 was 10.15. Also, the pIC50 at JAK2 is 9.10. Further, on TYK2, the pIC50 was 9.49. Further, in series [1] (plasma, blood), the Cmax turned out to be 7.12 ng/mL; the AUC(0-t) was found to be 11 ng·h/mL; the MRT (commonly the average time that molecules of a dose stay in the body) came to 1.73 h; the Tmax (as a rule, the time at which the peak concentration occurs) turned out to be 2 h. Also, in series [1] (colon), the Cmax is 2210 ng/mL, the AUC(0-t) was 6460 ng·h/mL, the AUC(0-inf) was 7240 ng·h/mL and the half-life is 1.52 h. In series [1] (colon), the MRT came to 3.43 h and the Tmax came out at 3 h. In series [1] (ileum), the Cmax worked out at 4140 ng/mL, the AUC(0-t) was found to be 15300 ng·h/mL, the AUC(0-inf) amounted to 15400 ng·h/mL and the half-life was 0.55 h. Moreover, in series [1] (ileum), the MRT is 2.43 h and the Tmax came to 3 h.
Take `Cc1cc(Nc2nc(N[C@@H]3C[C@H]4CCC[C@@H](C3)N4C(=O)CN3CCOCC3)nc3sccc23)n[nH]1` [Embodiment 246, 1-((3-exo)-3-((4-((5-methyl-1H-pyrazol-3-yl)amino)thieno[2,3-d]pyrimidin-2-yl)amino)-9-azabicyclo[3.3.1]non-9-yl)-2-morpholinoethane-1-one]: the pIC50 on JAK1 was 9.66. The negative-log IC50 (pIC50) on JAK2 was 9.15. On TYK2, the pIC50 was 8.73. In series [1] (plasma, blood), the Cmax is 5.56 ng/mL, the AUC(0-t) was 4.76 ng·h/mL, the MRT is 1.46 h and the Tmax came out at 2 h. In addition, in series [1] (colon), the Cmax is 3260 ng/mL, the AUC(0-t) was 13800 ng·h/mL, the MRT was 4.79 h and the Tmax came to 7 h. For the same compound, in series [1] (ileum), the Cmax amounted to 16800 ng/mL, the AUC(0-t) is 27900 ng·h/mL, the AUC(0-inf) was found to be 28400 ng·h/mL and the half-life was 1.81 h. Further, in series [1] (ileum), the MRT was 1.28 h and the Tmax amounted to 1 h.
For `COc1ccc2c(Nc3cc(C)[nH]n3)nc(N[C@@H]3C[C@H]4CC[C@@H](C3)N4CCC#N)nc2c1` [Embodiment 169, 3-((3-exo)-3-((7-methoxyl-4-((5-methyl-1H-pyrazol-3-yl)amino)quinazolin-2-yl)amino)-8-azabicyclo[3.2.1]oct-8-yl)propionitrile], the negative logarithm of the IC50 (pIC50) at JAK1 is 9.20; at JAK2, 8.97; at TYK2, 9.30. The Cmax was found to be 2.21 ng/mL in series [1] (plasma, blood); 9010 ng/mL in series [1] (colon); 23300 ng/mL in series [1] (ileum). Further, the AUC(0-t) stood at 3.04 ng·h/mL in series [1] (plasma, blood); 23200 ng·h/mL in series [1] (colon); 68900 ng·h/mL in series [1] (ileum). For the same compound, the MRT came out at 1.08 h in series [1] (plasma, blood); 2.29 h in series [1] (colon); 4.64 h in series [1] (ileum). In addition, the Tmax in series [1] (plasma, blood) is 0.5 h; in series [1] (colon) it was 5 h; in series [1] (ileum), 1 h.
Turning to `Cc1cc(Nc2nc(N[C@@H]3C[C@H]4CC[C@@H](C3)N4S(=O)(=O)N3CC(C#N)C3)nc3cc(Cl)ccc23)n[nH]1` [Embodiment 214], the pIC50 on JAK1 was 9.46. The pIC50 at JAK2 was 9.09. Besides, the negative-log IC50 (pIC50) at TYK2 is 9.34. Further, in series [1] (plasma, blood), the Cmax came out at 1.6 ng/mL, the AUC(0-t) worked out at 3.59 ng·h/mL, the MRT amounted to 1.82 h and the Tmax is 3 h. In addition, in series [1] (colon), the Cmax is 5590 ng/mL, the AUC(0-t) came to 19500 ng·h/mL, the MRT was determined as 4.4 h and the Tmax is 5 h. In series [1] (ileum), the Cmax was determined as 24800 ng/mL, the AUC(0-t) was 49300 ng·h/mL, the AUC(0-inf) was determined as 49500 ng·h/mL and the half-life was 0.79 h. Besides, in series [1] (ileum), the MRT turned out to be 1.52 h and the Tmax worked out at 1 h.
On to `Cc1cnc(Nc2cc3ncccc3c(N[C@@H]3C[C@H]4CC[C@@H](C3)N4CCC#N)n2)s1` [Embodiment 1, 3-((3-exo)-3-((7-((5-methylthioazol-2-yl)amino)-1,6-diazanaphthalen-5-yl)amino)-8-azabicyclo[3.2.1]oct-8-yl)propionitrile], for which, at JAK1, the pIC50 was 9.47. The pIC50 at JAK2 was 9.16. Also, the pIC50 at TYK2 is 9.26. Besides, in series [1] (plasma, blood), the Cmax was 25.6 ng/mL, the AUC(0-t) was 58.1 ng·h/mL, the AUC(0-inf) amounted to 61.5 ng·h/mL and the half-life was 1.75 h. In series [1] (plasma, blood), the MRT worked out at 2.03 h and the Tmax was found to be 0.5 h. In addition, in series [1] (colon), the Cmax amounted to 2720 ng/mL, the AUC(0-t) is 8320 ng·h/mL, the MRT worked out at 3.68 h and the Tmax came to 3 h. Further, in series [1] (ileum), the Cmax was 27100 ng/mL, the AUC(0-t) was 90500 ng·h/mL, the AUC(0-inf) amounted to 93700 ng·h/mL and the half-life is 1.08 h. For the same compound, in series [1] (ileum), the MRT came to 2.84 h and the Tmax is 3 h.
On to `Cc1cc(Nc2nc(N[C@@H]3C[C@H]4CCC[C@@H](C3)N4S(=O)(=O)N3CC(C#N)C3)nc3sccc23)n[nH]1` [Embodiment 238], for which the pIC50 on JAK1 is 10.52. For the same compound, the pIC50 at JAK2 was 9.36. Besides, the pIC50 on TYK2 is 9.92. Also, in series [1] (plasma, blood), the Cmax was 12.7 ng/mL, the AUC(0-t) worked out at 19.6 ng·h/mL, the mean residence time (MRT) is 1.47 h and the Tmax stood at 1 h. Besides, in series [1] (colon), the Cmax turned out to be 1320 ng/mL, the AUC(0-t) amounted to 5270 ng·h/mL, the AUC(0-inf) was 7380 ng·h/mL and the half-life was 2.89 h. In series [1] (colon), the MRT was 4.16 h and the Tmax worked out at 3 h. Further, in series [1] (ileum), the Cmax was 21000 ng/mL, the AUC(0-t) was 36600 ng·h/mL, the AUC(0-inf) was found to be 36600 ng·h/mL and the half-life was 0.58 h. Besides, in series [1] (ileum), the MRT was 1.29 h and the Tmax stood at 1 h.
With `Cc1cc(Nc2nc(N[C@@H]3C[C@H]4CCC[C@@H](C3)N4CCC#N)nc3scnc23)n[nH]1` [Embodiment 278, 3-((3-exo)-3-((7-((5-methyl-1H-pyrazol-3-yl)amino)thiazolo[5,4-d]pyrimidin-5-yl)amino)-9-azabicyclo[3.3.1]non-9-yl)propionitrile], the pIC50 at JAK1 was 9.15. The negative-log IC50 (pIC50) on JAK2 is 8.87. On TYK2, the pIC50 was 9.01. Further, in series [1] (plasma, blood), the Cmax is 1.79 ng/mL, the AUC(0-t) stood at 3.62 ng·h/mL, the MRT is 1.5 h and the Tmax came to 0.5 h. Also, in series [1] (colon), the Cmax was 1300 ng/mL, the AUC(0-t) came to 4640 ng·h/mL, the MRT was determined as 4.26 h and the Tmax is 5 h. Also, in series [1] (ileum), the Cmax was 3700 ng/mL, the AUC(0-t) was 6240 ng·h/mL, the AUC(0-inf) amounted to 6260 ng·h/mL and the half-life was 0.95 h. For the same compound, in series [1] (ileum), the MRT was 1.28 h and the Tmax was 1 h.
For the compound `CNCC(=O)N1[C@@H]2CCC[C@H]1C[C@H](Nc1nc(Nc3cc(C)[nH]n3)c3ccsc3n1)C2` [Embodiment 247, 1-((3-exo)-3-((4-((5-methyl-1H-pyrazol-3-yl)amino)thieno[2,3-d]pyrimidin-2-yl)amino)-9-azabicyclo[3.3.1]non-9-yl)-2-(methylamino)-ethane-1-one], the pIC50 on JAK1 was 10.00. The negative-log IC50 (pIC50) at JAK2 is 9.14. Moreover, the pIC50 at TYK2 is 9.92. In addition, in series [1] (colon), the Cmax is 2270 ng/mL, the AUC(0-t) came out at 10200 ng·h/mL, the MRT was 4.05 h and the Tmax worked out at 3 h. Further, in series [1] (ileum), the Cmax amounted to 13800 ng/mL, the AUC(0-t) is 24700 ng·h/mL, the AUC(0-inf) came out at 24900 ng·h/mL and the half-life was 0.92 h. Besides, in series [1] (ileum), the MRT came to 1.39 h and the Tmax was 1 h.
